Assay results from patent US20230257372A1 (CHONG KUN DANG PHARMACEUTICAL CORP., priority 2020, published 2023).
Read-outs that look alike come from different tables or passages of the source.

Key:
human recombinant HDAC6 = biological target: T1, human recombinant HDAC6 (Homo sapiens, UniProt Q9UBN7); assay: HDAC6 enzyme activity inhibition (HDAC Fluorimetric Drug Discovery Kit); assay type: biochemical
T1 construct: purchased Calbiochem Inc. 382180
T1 sequence (Q9UBN7 1-1215): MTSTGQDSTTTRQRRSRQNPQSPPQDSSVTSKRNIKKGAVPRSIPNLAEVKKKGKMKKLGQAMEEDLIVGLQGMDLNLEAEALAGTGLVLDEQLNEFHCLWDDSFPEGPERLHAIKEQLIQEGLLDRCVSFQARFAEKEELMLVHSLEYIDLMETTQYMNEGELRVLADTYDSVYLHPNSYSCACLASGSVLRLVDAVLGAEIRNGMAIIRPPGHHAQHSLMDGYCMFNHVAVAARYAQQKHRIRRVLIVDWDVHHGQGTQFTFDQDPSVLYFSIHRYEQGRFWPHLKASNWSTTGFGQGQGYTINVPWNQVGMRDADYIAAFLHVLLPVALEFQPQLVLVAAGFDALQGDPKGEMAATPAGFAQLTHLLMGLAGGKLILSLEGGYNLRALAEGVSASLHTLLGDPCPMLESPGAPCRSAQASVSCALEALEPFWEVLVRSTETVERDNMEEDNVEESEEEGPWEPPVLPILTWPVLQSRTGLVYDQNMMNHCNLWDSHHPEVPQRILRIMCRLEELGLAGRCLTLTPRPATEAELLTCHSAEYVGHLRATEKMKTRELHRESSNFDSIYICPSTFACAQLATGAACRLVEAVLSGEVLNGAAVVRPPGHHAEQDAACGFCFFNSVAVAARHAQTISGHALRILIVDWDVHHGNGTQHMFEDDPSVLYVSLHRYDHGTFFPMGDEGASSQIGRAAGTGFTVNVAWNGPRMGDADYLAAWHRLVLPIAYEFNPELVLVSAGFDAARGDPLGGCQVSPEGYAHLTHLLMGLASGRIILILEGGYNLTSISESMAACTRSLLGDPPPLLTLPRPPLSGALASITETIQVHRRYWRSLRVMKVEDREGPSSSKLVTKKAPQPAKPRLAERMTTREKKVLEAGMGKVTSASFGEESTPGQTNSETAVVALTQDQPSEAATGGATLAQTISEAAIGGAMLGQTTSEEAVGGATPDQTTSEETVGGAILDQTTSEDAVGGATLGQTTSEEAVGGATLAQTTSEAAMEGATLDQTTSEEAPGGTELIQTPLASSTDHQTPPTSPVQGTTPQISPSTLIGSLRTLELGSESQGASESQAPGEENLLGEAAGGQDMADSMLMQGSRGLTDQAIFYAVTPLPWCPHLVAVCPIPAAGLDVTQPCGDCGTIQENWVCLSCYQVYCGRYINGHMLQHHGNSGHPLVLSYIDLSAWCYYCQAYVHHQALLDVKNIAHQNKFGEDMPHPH
Summary of the method: (§1)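 Fluorimetric deacetylase read-out: after 30 min with Developer II following a 60 min, 30° C reaction of recombinant enzyme ([…]) with 10 μM substrate, across five-fold serial compound dilutions.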

human recombinant HDAC1 = biological target: T2, human recombinant HDAC1 (Homo sapiens, UniProt Q13547); assay: HDAC1 enzyme activity inhibition (HDAC Fluorimetric Drug Discovery Kit); assay type: biochemical; conditions: read-out: HDAC1
T2 construct: purchased Enzo Life Science, Inc. BML-SE456
T2 sequence (Q13547 whole entry): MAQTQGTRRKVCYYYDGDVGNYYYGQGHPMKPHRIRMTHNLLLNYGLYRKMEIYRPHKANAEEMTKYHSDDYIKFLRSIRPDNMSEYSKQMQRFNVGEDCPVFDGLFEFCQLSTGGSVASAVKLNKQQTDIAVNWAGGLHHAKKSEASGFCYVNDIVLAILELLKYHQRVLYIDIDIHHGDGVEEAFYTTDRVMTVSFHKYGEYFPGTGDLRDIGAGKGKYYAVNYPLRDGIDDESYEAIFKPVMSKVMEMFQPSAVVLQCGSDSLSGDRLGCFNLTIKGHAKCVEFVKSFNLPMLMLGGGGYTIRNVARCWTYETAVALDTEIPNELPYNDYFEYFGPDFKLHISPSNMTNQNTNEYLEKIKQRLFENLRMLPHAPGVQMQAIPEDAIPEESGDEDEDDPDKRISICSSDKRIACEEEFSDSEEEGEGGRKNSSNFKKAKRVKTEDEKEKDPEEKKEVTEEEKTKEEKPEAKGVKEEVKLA
Summary of the method: as §1

[1] = human recombinant HDAC6, same protocol as HDAC1
[2] = human recombinant HDAC1, Fluor de Lys substrate, 30° C. 60 minutes
[3] = human recombinant HDAC6, IC50 calculated with GraphPad Prism
[4] = human recombinant HDAC1, IC50 calculated with GraphPad Prism

| Structure (SMILES) | HDAC6 selectivity (fold) (human recombinant HDAC6; HDAC6 over HDAC1) | IC50 (human recombinant HDAC6; [1]) [nM] | IC50 (human recombinant HDAC1; [2]) [nM] | HDAC6 selectivity (fold) (human recombinant HDAC6; HDAC1 IC50 / HDAC6 IC50) | IC50 (human recombinant HDAC6; [3]) [nM] | IC50 (human recombinant HDAC1; [4]) [nM] |
| --- | --- | --- | --- | --- | --- | --- |
| CCN1CCN(c2cccc(-c3cn(Cc4ccc(-c5nnc(C(F)F)o5)cc4F)nn3)n2)CC1 [Compound 17362, 2-(difluoromethyl)-5-(4-((4-(6-(4-ethylpiperazin-1-yl)pyridin-2-yl)-1H-1,2,3-triazol-1-yl)methyl)-3-fluorophenyl)-1,3,4-oxadiazole] | 2032 | 24.6 | > 50000 |  |  |  |
| FC(F)c1nnc(-c2ccc(Cn3cnc(-c4ccccc4)c3)nc2)o1 [Compound 3950, 2-(difluoromethyl)-5-(6-((4-phenyl-1H-imidazol-1-yl)methyl)pyridin-3-yl)-1,3,4-oxadiazole] |  |  |  | 954 | 52.4 | > 50000 |
| O=C(Nc1cccc(-c2cn(Cc3ccc(-c4nnc(C(F)F)o4)cn3)nn2)c1)C1CN(C2COC2)C1 [Compound 4465] |  |  |  | 2222 | 22.5 | > 50000 |
| CC(C)N1CC(c2cccc(-c3cn(Cc4ccc(-c5nnc(C(F)F)o5)cn4)nn3)c2)C1 [Compound 4503, 2-(difluoromethyl)-5-(6-((4-(3-(1-isopropylazetidin-3-yl)phenyl)-1H-1,2,3-triazol-1-yl)methyl)pyridin-3-yl)-1,3,4-oxadiazole] | 4672 | 10.7 | > 50000 |  |  |  |
| CCN1Cc2cccc(-c3cn(Cc4ccc(-c5nnc(C(F)F)o5)cc4)nn3)c2C1 [Compound 4530, 2-(difluoromethyl)-5-(4-((4-(2-ethylisoindolin-4-yl)-1H-1,2,3-triazol-1-yl)methyl)phenyl)-1,3,4-oxadiazole] | 449 | 111 | > 50000 |  |  |  |
| CN(C)Cc1cc(Cl)cc(-c2cn(Cc3ccc(-c4nnc(C(F)F)o4)cc3F)nn2)c1 [Compound 18483, 1-(3-chloro-5-(1-(4-(5-(difluoromethyl)-1,3,4-oxadiazol-2-yl)-2-fluorobenzyl)-1H-1,2,3-triazol-4-yl)phenyl)-N,N-dimethylmethanamine] | 970 | 51.5 | > 50000 |  |  |  |
| CN(C)Cc1cccc(-c2cn(Cc3ncc(-c4nnc(C(F)F)o4)cc3F)nn2)c1 [Compound 18457, 1-(3-(1-((5-(5-(difluoromethyl)-1,3,4-oxadiazol-2-yl)-3-fluoropyridin-2-yl)methyl)-1H-1,2,3-triazol-4-yl)phenyl)-N,N-dimethylmethanamine] | 554 | 90.1 | > 50000 |  |  |  |
| FC(F)c1nnc(-c2ccc(Cn3cc(-c4cccc(C5CN(C6COC6)C5)c4)nn3)cc2)o1 [Compound 4511, 2-(difluoromethyl)-5-(4-((4-(3-(1-(oxetan-3-yl)azetidin-3-yl)phenyl)-1H-1,2,3-triazol-1-yl)methyl)phenyl)-1,3,4-oxadiazole] | 325 | 64.2 | > 50000 |  |  |  |
| O=c1[nH]cccc1-c1cn(Cc2ccc(-c3nnc(C(F)F)o3)cn2)nn1 [Compound 3844, 3-(1-((5-(5-(difluoromethyl)-1,3,4-oxadiazol-2-yl)pyridin-2-yl)methyl)-1H-1,2,3-triazol-4-yl)pyridin-2(1H)-one] |  |  |  | 2415 | 20.7 | > 50000 |
| CN1CCN(Cc2ccc(-c3cn(Cc4ccc(-c5nnc(C(F)F)o5)cc4)nn3)cc2)CC1 [Compound 4552, 2-(difluoromethyl)-5-(4-((4-(4-((4-methylpiperazin-1-yl)methyl)phenyl)-1H-1,2,3-triazol-1-yl)methyl)phenyl)-1,3,4-oxadiazole] | 1184 | 42.2 | > 50000 |  |  |  |
| FC(F)c1nnc(-c2ccc(Cn3cc(-c4cccc(NC5CCOCC5)c4)nn3)cc2)o1 [Compound 4325, N-(3-(1-(4-(5-(difluoromethyl)-1,3,4-oxadiazol-2-yl)benzyl)-1H-1,2,3-triazol-4-yl)phenyl)tetrahydro-2H-pyran-4-amine] |  |  |  | 830 | 60.2 | > 50000 |
| Fc1cc(-c2nnc(C(F)F)o2)cnc1Cn1cc(-c2ccc(CN3CCC3)cn2)nn1 [Compound 18622, 2-(6-((4-(5-(azetidin-1-ylmethyl)pyridin-2-yl)-1H-1,2,3-triazol-1-yl)methyl)-5-fluoropyridin-3-yl)-5-(difluoromethyl)-1,3,4-oxadiazole] | 606 | 82.4 | > 50000 |  |  |  |
| Fc1ccc(-c2cn(Cc3ccc(-c4nnc(C(F)F)o4)cc3)nn2)cc1N1CCN(C2CCC2)CC1 [Compound 4422, 2-(4-((4-(3-(4-cyclobutylpiperazin-1-yl)-4-fluorophenyl)-1H-1,2,3-triazol-1-yl)methyl)phenyl)-5-(difluoromethyl)-1,3,4-oxadiazol] |  |  |  | 127 | 392 | > 50000 |
| Fc1cnccc1-c1cn(Cc2ccc(-c3nnc(C(F)F)o3)cn2)nn1 [Compound 4184, 2-(difluoromethyl)-5-(6-((4-(3-fluoropyridin-4-yl)-1H-1,2,3-triazol-1-yl)methyl)pyridin-3-yl)-1,3,4-oxadiazole] |  |  |  | 1291 | 38.7 | > 50000 |
| Fc1cc(-c2nnc(C(F)F)o2)ccc1Cn1cc(-c2ccc(F)c(N3CCN(C4COC4)CC3)c2)nn1 [Compound 4427, 2-(difluoromethyl)-5-(3-fluoro-4-((4-(4-fluoro-3-(4-(oxetan-3-yl)piperazin-1-yl)phenyl)-1H-1,2,3-triazol-1-yl)methyl)phenyl)-1,3,4-oxadiazole] |  |  |  | 548 | 91.2 | > 50000 |
| COc1cccc(-c2cn(Cc3ccc(-c4nnc(C(F)F)o4)cc3F)nn2)n1 [Compound 18736, 2-(difluoromethyl)-5-(3-fluoro-4-((4-(6-methoxypyridin-2-yl)-1H-1,2,3-triazol-1-yl)methyl)phenyl)-1,3,4-oxadiazole] | 622 | 80.3 | > 50000 |  |  |  |
| CC1CCN(Cc2ccc(-c3cn(Cc4ncc(-c5nnc(C(F)F)o5)cc4F)nn3)s2)CC1 [Compound 18310, 2-(difluoromethyl)-5-(5-fluoro-6-((4-(5-((4-methylpiperidin-1-yl)methyl)thiophen-2-yl)-1H-1,2,3-triazol-1-yl)methyl)pyridin-3-yl)-1,3,4-oxadiazole] | 986 | 50.7 | > 50000 |  |  |  |
| CCN1CCN(Cc2ccc(-c3cn(Cc4ccc(-c5nnc(C(F)F)o5)cc4F)nn3)cc2)CC1 [Compound 4474, 2-(difluoromethyl)-5-(4-((4-(4-((4-ethylpiperazin-1-yl)methyl)phenyl)-1H-1,2,3-triazol-1-yl)methyl)-3-fluorophenyl)-1,3,4-oxadiazole] |  |  |  | 1213 | 41.2 | > 50000 |
| FC(F)c1nnc(-c2ccc(Cn3cc([C@@H]4CCCN4C4CC5(COC5)C4)nn3)nc2)o1 [Compound 4027, (S)-2-(6-((4-(1-(2-oxaspiro[3.3]heptan-6-yl)pyrrolidin-2-yl)-1H-1,2,3-triazol-1-yl)methyl)pyridin-3-yl)-5-(difluoromethyl)-1,3,4-oxadiazole] |  |  |  | 10 | 5000 | > 50000 |
| CC(C)N1C[C@@H]2C[C@H]1CN2c1cccc(-c2cn(Cc3ccc(-c4nnc(C(F)F)o4)cc3)nn2)c1 [Compound 4321, 2-(difluoromethyl)-5-(4-((4-(3-((1S, 4S)-5-isopropyl-2,5-diazabicyclo[2.2.1]heptan-2-yl)phenyl)-1H-1,2,3-triazol-1-yl)methyl)phenyl)-1,3,4-oxadiazole] |  |  |  | 434 | 111 | > 50000 |
